Source: PubChem BioAssay AID256 (DTP/NCI, 2004)
Several values for one entry are separate records, joined by “and”; a condition that tells them apart may be missing. Identical values can stand only once. Inconclusive results and toxic doses are left out. Rule for the calls: active = survival T/C of 150% or more; inactive = T/C below 125% in these data.

Tested on: CD2F1 mice, L1210 leukemia ip, survival T/C
Test: NCI In Vivo Anticancer Drug Screen. Data for tumor model L1210 Leukemia (intraperitoneal) in CD2F1 (CDF1) mice
Settings: endpoint: mean survival time, higher = longer survival
Method in brief: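 Mice carrying a transplanted tumor received test compound or vehicle alone. The value is the measurement in the treated group divided by that in the vehicle-treated control group.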

[1] = dose: 100.0 mg/kg/injection, schedule: Q04DX003 (ip), vehicle: saline with Tween-80
[2] = dose: 200.0 mg/kg/injection, schedule: Q04DX003 (ip), vehicle: saline with Tween-80
[3] = dose: 400.0 mg/kg/injection, schedule: Q04DX003 (ip), vehicle: saline with Tween-80
[4] = dose: 100.0 mg/kg/injection, schedule: Q01DX001 (ip), vehicle: saline
[5] = dose: 50.0 mg/kg/injection, schedule: Q01DX009 (ip), vehicle: saline with Tween-80
[6] = dose: 100.0 mg/kg/injection, schedule: Q01DX009 (ip), vehicle: saline with Tween-80
[7] = dose: 200.0 mg/kg/injection, schedule: Q01DX009 (ip), vehicle: saline with Tween-80
[8] = dose: 400.0 mg/kg/injection, schedule: Q01DX009 (ip), vehicle: saline with Tween-80
[9] = dose: 100.0 mg/kg/injection, schedule: Q04DX003 (ip), vehicle: saline
[10] = dose: 200.0 mg/kg/injection, schedule: Q04DX003 (ip), vehicle: saline
[11] = dose: 400.0 mg/kg/injection, schedule: Q04DX003 (ip), vehicle: saline
[12] = dose: 200.0 mg/kg/injection, schedule: Q01DX001 (ip), vehicle: saline
[13] = dose: 400.0 mg/kg/injection, schedule: Q01DX001 (ip), vehicle: saline

Measured: T/C

Cc1ccc(S(=O)(=O)OCCOc2ccc(C(C)(C)CC(C)(C)C)cc2)cc1
inactive: dose: 100.0 mg/kg/injection, schedule: Q01DX001 (ip), vehicle: Klucel (hydroxypropylcellulose) (HPC) 93 % of control | dose: 200.0 mg/kg/injection, schedule: Q01DX001 (ip), vehicle: Klucel (hydroxypropylcellulose) (HPC) 98 % of control | dose: 400.0 mg/kg/injection, schedule: Q01DX001 (ip), vehicle: Klucel (hydroxypropylcellulose) (HPC) 94 % of control

N=c1ccccn1CCO
inactive: dose: 75.0 mg/kg/injection, schedule: Q01DX001 (ip), vehicle: saline 100 % of control | dose: 150.0 mg/kg/injection, schedule: Q01DX001 (ip), vehicle: saline 108 % of control

CCCCCCCCC/C(C)=N\NC(=O)c1ccccc1
inactive: dose: 100.0 mg/kg/injection, schedule: Q01DX009 (ip), vehicle: saline sonified 100 % of control | dose: 400.0 mg/kg/injection, schedule: Q01DX009 (ip), vehicle: saline sonified 108 % of control

CCCCCCCCCCCC(=O)N(CCCC)CCCC
inactive: dose: 100.0 mg/kg/injection, schedule: Q04DX002 (ip), vehicle: saline 103 % of control | dose: 200.0 mg/kg/injection, schedule: Q04DX002 (ip), vehicle: saline 103 % of control | dose: 400.0 mg/kg/injection, schedule: Q04DX002 (ip), vehicle: saline 106 % of control

CCCCCCCCCCCCCCCCOc1ccc(S(=O)(=O)NC2CCCCC2)cc1[N+](=O)[O-]
inactive: [1] 90 % of control | [2] 93 % of control | [3] 94 % of control

CCOc1ccc(/C=C/c2cc[n+](C)cc2)cc1OC
inactive: [4] 103 % of control

O=C(CC(Br)C(=O)c1ccccc1)c1ccccc1 (centres undefined)
inactive: dose: 100.0 mg/kg/injection, schedule: Q04DX003 (ip), vehicle: saline sonified 92 % of control | dose: 200.0 mg/kg/injection, schedule: Q04DX003 (ip), vehicle: saline sonified 94 % of control | dose: 400.0 mg/kg/injection, schedule: Q04DX003 (ip), vehicle: saline sonified 97 % of control

Cc1ccc(OCCOc2ccc(C(=O)O)cc2)cc1
inactive: dose: 7.5 mg/kg/injection, schedule: Q01DX009 (ip), vehicle: Klucel (hydroxypropylcellulose) (HPC) 100 % of control | dose: 15.0 mg/kg/injection, schedule: Q01DX009 (ip), vehicle: Klucel (hydroxypropylcellulose) (HPC) 98 % of control | dose: 30.0 mg/kg/injection, schedule: Q01DX009 (ip), vehicle: Klucel (hydroxypropylcellulose) (HPC) 96 % of control

Cn1c(=O)c2c(nc(N3CCOCC3)n2CCCNCC(O)c2ccc(O)c(O)c2)n(C)c1=O (centres undefined)
inactive: dose: 12.5 mg/kg/injection, schedule: Q01DX005 (ip), vehicle: water 102 % of control | dose: 25.0 mg/kg/injection, schedule: Q01DX005 (ip), vehicle: water 96 % of control | dose: 50.0 mg/kg/injection, schedule: Q01DX005 (ip), vehicle: water 97 % of control | dose: 100.0 mg/kg/injection, schedule: Q01DX005 (ip), vehicle: water 96 % of control | dose: 200.0 mg/kg/injection, schedule: Q01DX005 (ip), vehicle: water 92 % of control

O=C(O)CC1C=CCC1 (centres undefined)
inactive: dose: 6.25 mg/kg/injection, schedule: Q04DX003 (ip), vehicle: saline 102 % of control | dose: 12.5 mg/kg/injection, schedule: Q04DX003 (ip), vehicle: saline 97 % of control | dose: 25.0 mg/kg/injection, schedule: Q04DX003 (ip), vehicle: saline 97 % of control | [1] 98 % of control

O=C(O)C1C(C(=O)O)C(C(=O)O)C1C(=O)O (centres undefined)
inactive: [5] 109 % of control | [6] 95 % of control | [7] 108 % of control

O=C(O)c1ccc(NC(=S)NC(=O)c2cccc(Br)c2)cc1
inactive: dose: 100.0 mg/kg/injection, schedule: Q01DX001 (ip), vehicle: saline with Tween-80 97 % of control | [6] 95 % of control and 97 % of control | dose: 100.0 mg/kg/injection, schedule: Q04DX002 (ip), vehicle: saline with Tween-80 95 % of control | [1] 100 % of control | dose: 200.0 mg/kg/injection, schedule: Q01DX001 (ip), vehicle: saline with Tween-80 88 % of control and 101 % of control | [7] 95 % of control and 101 % of control | dose: 200.0 mg/kg/injection, schedule: Q04DX002 (ip), vehicle: saline with Tween-80 94 % of control and 103 % of control | [2] 90 % of control | dose: 400.0 mg/kg/injection, schedule: Q01DX001 (ip), vehicle: saline with Tween-80 92 % of control and 95 % of control | [8] 86 % of control | dose: 400.0 mg/kg/injection, schedule: Q04DX002 (ip), vehicle: saline with Tween-80 97 % of control and 106 % of control | [3] 93 % of control

COc1cc(N)nc(OC)n1
inactive: [1] 94 % of control | [2] 100 % of control | [3] 87 % of control

Cc1ccccc1NCS(=O)(=O)O
inactive: [9] 101 % of control | [10] 104 % of control | [11] 98 % of control

CC1CCCCCC(=O)c2c(O)cc(O)cc2CC(=O)O1 (centres undefined)
inactive: dose: 100.0 mg/kg/injection, schedule: Q01DX001 (ip), vehicle: other 95 % of control | dose: 200.0 mg/kg/injection, schedule: Q01DX001 (ip), vehicle: other 118 % of control | dose: 400.0 mg/kg/injection, schedule: Q01DX001 (ip), vehicle: other 100 % of control

c1ccc(NN=C(c2ccccc2)c2ccccc2)cc1
inactive: [1] 95 % of control | [2] 95 % of control | [3] 98 % of control

O=C(Oc1c(Cl)c(Cl)c(Cl)c(Cl)c1Cl)c1ccc([N+](=O)[O-])cc1
inactive: [6] 101 % of control | [7] 97 % of control | [8] 95 % of control

C=CCN(CC=C)C(=O)NCC(=O)OCC
inactive: [5] 101 % of control | [6] 95 % of control | [7] 97 % of control

CC(=O)OC1CCC2(C)C(CC=C3C2CCC2(C)C3CCC2C(C)CCCC(C)C)C1 (centres undefined)
inactive: [6] 89 % of control | [7] 89 % of control | [8] 91 % of control

O/N=C/C1CCCC[N-]1.[Co+3].[O-]/N=C/C1CCCC[N-]1.[O-]/N=C/C1CCCC[N-]1.[O-][Cl+3]([O-])([O-])O (centres undefined)
inactive: [4] 108 % of control | [12] 96 % of control | [13] 96 % of control

CCCCC(=O)NN
inactive: dose: 12.5 mg/kg/injection, schedule: Q01DX009 (ip), vehicle: saline with Tween-80 90 % of control | dose: 25.0 mg/kg/injection, schedule: Q01DX009 (ip), vehicle: saline with Tween-80 104 % of control | [5] 118 % of control

Nc1cnc(/C=C/c2ccccc2)nc1
inactive: dose: 75.0 mg/kg/injection, schedule: Q01DX001 (ip), vehicle: other 104 % of control | dose: 150.0 mg/kg/injection, schedule: Q01DX001 (ip), vehicle: other 102 % of control

C=CC(=O)CCCC(=O)O
inactive: [6] 100 % of control | [7] 102 % of control | [8] 104 % of control

O=C(O)CCN(Cl)Cl
inactive: dose: 1.56 mg/kg/injection, schedule: Q01DX009 (ip), vehicle: saline 97 % of control | dose: 3.13 mg/kg/injection, schedule: Q01DX009 (ip), vehicle: saline 102 % of control | dose: 6.25 mg/kg/injection, schedule: Q01DX009 (ip), vehicle: saline 100 % of control

O=S(=O)(O)c1ccc(-c2c3nc(c(-c4ccc(S(=O)(=O)O)cc4)c4ccc([nH]4)c(-c4ccc(S(=O)(=O)O)cc4)c4nc(c(-c5ccc(S(=O)(=O)O)cc5)c5ccc2[nH]5)C=C4)C=C3)cc1
inactive: [4] 108 % of control | [12] 108 % of control | [13] 113 % of control

CC(C)N=C(N)c1ccc(NC(=O)c2ccc(C(=O)Nc3ccc(C(N)=NC(C)C)cc3)cc2)cc1
inactive: dose: 6.25 mg/kg/injection, schedule: Q01DX Z (ip), vehicle: water 93 % of control

CN(C)c1nnc(N(C)C)s1
inactive: [1] 100 % of control | [2] 98 % of control | [3] 98 % of control

C1CC2CNC1CN2
inactive: [9] 96 % of control | [10] 98 % of control | [11] 94 % of control
